Measured values published in US10603335B2, “Cancer treatment combination compositions, methods and uses” (Board of Supervisors of Louisiana State University and …, priority 2016, dated 2020).

Columns and labels:
AsPC-1 spheroids = test: 3D spheroid growth (IncuCyte ZOOM), AsPC-1; assay type: cell-based; details: gemcitabine 0.5, 1.0, 5.0 μM, LHRH-curcumin 10, 20 μM, 5 days
Method: (§1) Panc-1 and Mia-Paca-2 cells were grown in 10% FBS DMEM. Cells were collected after trypsinization and resuspended in phenol-red free DMEM with 10% FBS. Cells were labeled with CellTracker Red (Life Techmologies) for 5 minutes. After labeling cells were washed with PBS and transfer into 96-well Corning 7007 ULA round bottom plates at 1,000 cells/well in 100 μl phenol-red free media with 10% FBS and 5% Matrigel. […] Spheroids were grown at 37° C. and 5% CO2 in IncuCyte ZOOM (Essen Bioscience). Images were acquired every 4 h for a period of 120 h post-treatment and software analysis was design to identify the red object in the well. The data were expressed as fold increase in spheroids size at the end of the treatment using the “average red object area in the well” as determined by the IncuCyte software analysis. Reproducibility was confirmed in three independent experiments. Spheroids grew at a uniform rate (FIG. 1).
Panc-1, Mia-Paca-2 and AsPC-1 spheroids were formed in 96-well round bottom plates as described. […] Media alone was used as control. The spheroids were grown for 5 days before quantification. Both gemcitabine and LHRH-curcumin were diluted in water.

PATX153 tissue slices = test: Live Tissue Sensitivity Assay (LTSA), PATX153; assay type: cell-based; details: 72 hours
Method: (§2) Animal experiment protocol was reviewed and approved by The University of Texas MD Anderson Cancer Center (Houston, Tex.) institutional review board and in accordance with the Guidelines for the Care and Use of Laboratory Animals published by the National Institutes of Health. PDXs were grown from cryopreserved early passages of PDXs in nude mice as described in previous publications (Kim M P, et al, Nat Protoc 2009; 4(11): 1670-80). Briefly, tumor samples stored in CryoStor™ CS10 storage medium were recovered and cut into about 2 mm3 fragments, soaked in Matrigel, and implanted into the subcutaneous space of Balb/c nude mice (5 mice/PDX). Tumors were harvested when they reach 1.5 cm in diameter for generating tissue slices for drug testing with quadruplicates.
(§3) About 100 tissue slices were produced from 1 tumorgraft with tissue slicer and arrayed in 96-well plates with previously established method (Roife D, et al, Clin Cancer Res 2016). […] Same volume of medium with 0.1% DMSO was added into control wells. After 72 hours, tissue viabilities were measured with PrestoBlue method. Viability inhibition will be calculated through normalization of viabilities of tissue slices treated with inhibitor against the viability of control (DMSO treated) slices. Inhibition of viability was further analyzed with t-test. […]

Panc-1 cells spheroids = test: 3D spheroid growth (IncuCyte ZOOM), Panc-1; assay type: cell-based
Method: A protocol that enables the growth of identical size single cancer cell spheroids in Matrigel in 96 well plates has been developed.
as §1

[1] = system: TGFβ pathway genes in PATC53 pancreatic cancer cells; test: Quantitative PCR of TGFβ pathway genes, PATC53; assay type: cell-based; details: TGFβ 100 ng/ml, LHRH-curcumin 20 μM and 50 μM
Method: GAPDH was used as a reference.
mRNA levels of Smad3, SNAI1, SNAI2, TGFBRI, TGFBRII, GADD45 and XIAP were determined by quantitative real-time PCR using the Roche Universal Library Probe protocol. Thermal cycling was carried out using the LightCycler96 system from Roche under the following conditions: 95° C. for 10 min and 40 cycles at 95° C. for 15 s and 55° C. for 60 s. mRNA expression for any given gene is represented as comparative to the control-treated cells. GAPDH was used as the housekeeping gene of reference.

PATX50 tissue slices = test: Live Tissue Sensitivity Assay (LTSA), PATX50; assay type: cell-based; details: 72 hours
Method: as §2, §3

PATX148 tissue slices = test: Live Tissue Sensitivity Assay (LTSA), PATX148; assay type: cell-based; details: 72 hours
Method: as §2, §3

physchem = details: saline (PBS)
PATX112 tissue slices = test: Live Tissue Sensitivity Assay (LTSA), PATX112; assay type: cell-based; details: 72 hours
Method: as §2, §3

PATX102 tissue slices = test: Live Tissue Sensitivity Assay (LTSA), PATX102; assay type: cell-based; details: 72 hours
Method: as §2, §3

PATX176 tissue slices = test: Live Tissue Sensitivity Assay (LTSA), PATX176; assay type: cell-based; details: 72 hours
Method: as §2, §3

PATX110 tissue slices = test: Live Tissue Sensitivity Assay (LTSA), PATX110; assay type: cell-based; details: 72 hours
Method: as §2, §3

PATX118 tissue slices = test: Live Tissue Sensitivity Assay (LTSA), PATX118; assay type: cell-based; details: 72 hours
Method: as §2, §3

[2] = system: cleaved PARP, XIAP and cIAP2 in Panc-1 cells; test: Western blot of apoptosis markers and inhibitors of apoptosis, Panc-1; assay type: cell-based; details: for apoptosis marker cleaved PARP: 24 h post-treatment, LHRH-curcumin 10-100 uM, gemcitabine 1-20 uM
Method: (§4) Pancreatic cells were collected after trypsinization and seeded in 12-well plates for 24 h before treatments. Treatments were performed as described in the Figure legends. Following treatment, whole cell lysates were collected in Laemmli buffer and analyzed by Western blot. The following primary antibodies were used: XIAP, c-IAP2, cleaved PARP, Caspase-3 (all from Cell Signaling), actin (Santa Cruz) and LHRHR (Abcam).
(§5) Western blot analysis. Actin, GAPDH and Ponceau staining were used as loading controls. Gemcitabine was diluted in water. Curcumin and LHRH-curcumin were diluted in DMSO. Cells were treated as follows:
Western blot analysis. Actin, GAPDH and Ponceau staining were used as loading controls. Gemcitabine was diluted in water. Curcumin and LHRH-curcumin were diluted in DMSO. The cells were treated as follows:
Western blot analysis. Actin was used as loading control. Both gemcitabine and LHRH-curcumin were diluted in water.

PATX173 tissue slices = test: Live Tissue Sensitivity Assay (LTSA), PATX173; assay type: cell-based; details: 72 hours
Method: as §2, §3

[3] = system: cleaved PARP, XIAP and cIAP2 in AsPC-1 cells; test: Western blot of apoptosis markers and inhibitors of apoptosis, AsPC-1; assay type: cell-based; details: for XIAP and c-IAP2 protein levels: 24 h; for apoptosis marker cleaved PARP: 24 h post-treatment, LHRH-curcumin 10-100 uM, gemcitabine 1-20 uM
Method: as §4, §5
Western blot analysis. Actin, GAPDH and Ponceau staining were used as loading controls. Gemcitabine was diluted in water. Curcumin and LHRH-curcumin were diluted in DMSO.

PATX141 tissue slices = test: Live Tissue Sensitivity Assay (LTSA), PATX141; assay type: cell-based; details: 72 hours
Method: as §2, §3

[4] = gemcitabine 0.5, 1.0, 5.0 μM, LHRH-curcumin 10, 20 μM, 5 days
[5] = 24 h, curcumin, LHRH-curcumin 50 uM and 100 uM alone, gemcitabine alone
[6] = curcumin, LHRH-curcumin 50 uM and 100 uM alone, gemcitabine alone

In the case of `COc1cc(/C=C/C(=O)CC(=O)/C=C/c2ccc(OC(=O)CCCC(=O)NCCCC[C@@H](NC(=O)[C@H](Cc3ccc(O)cc3)NC(=O)[C@H](CO)NC(=O)[C@H](Cc3c[nH]c4ccccc34)NC(=O)[C@H](Cc3c[nH]cn3)NC(=O)[C@@H]3CCC(=O)N3)C(=O)N[C@@H](CC(C)C)C(=O)N[C@@H](CCCNC(=N)N)C(=O)N3CCC[C@H]3C(=O)NCC(N)=O)c(OC)c2)ccc1O` [LHRH-curcumin, [DLys6]-LHRH-Curcumin], the “size of the spheroids” value (AsPC-1 spheroids) is reported as “decrease the size of the spheroids”, the “Sensitivity To LHRH-C” value (PATX153 tissue slices; single agent) is reported as “Sensitive (The tissue was defined as sensitive to the treatment if both p<0.05 and at least 30% of tissue slice viability on average was inhibited)” and the “effectiveness on spheroids growth versus curcumin” value (Panc-1 cells spheroids; 3D culture, 10, 20 and 30 μM, 120 h) is reported as “more effective than curcumin”. The “size of the spheroids” value (Panc-1 cells spheroids; 10, 20 and 30 μM, 120 h post-treatment) was “significantly decreased the size of the spheroids formed by Panc-1 cells in a dose-dependent manner”, the spheroids growth (Panc-1 cells spheroids; LHRH 30 μM, LHRH-curcumin 30 μM) was “superior to that of LHRH” and the “size of the spheroids” value (Panc-1 cells spheroids; [4]) was “decrease the size of the spheroids”. The “mRNA levels of GADD45 and XIAP” value [1] was “affected”, the “mRNA levels of TGFβ signaling genes (SMAD3, SNAI1, SNAI2, TGFBRI, TGFBRII)” value ([1]; 24 h and 48 h) was “down-regulated” and the “Sensitivity To LHRH-C” value (PATX50 tissue slices; single agent) was “Resistant”. The “Sensitivity To LHRH-C” value (PATX148 tissue slices; single agent) was “Resistant”, the solubility (physchem) was at least 24 mg/mL and the “Sensitivity To LHRH-C” value (PATX112 tissue slices; single agent) was “Sensitive (The tissue was defined as sensitive to the treatment if both p<0.05 and at least 30% of tissue slice viability on average was inhibited)”. The “Sensitivity To LHRH-C” value (PATX102 tissue slices; single agent) was “Resistant”, the “Sensitivity To LHRH-C” value (PATX176 tissue slices; single agent) was “Resistant” and the “Sensitivity To LHRH-C” value (PATX110 tissue slices; single agent) was “Sensitive (The tissue was defined as sensitive to the treatment if both p<0.05 and at least 30% of tissue slice viability on average was inhibited)”. For the same molecule, the “Sensitivity To LHRH-C” value (PATX118 tissue slices; single agent) was “Resistant”, the “XIAP and c-IAP2 protein levels” value ([2]; 24 h, 50 uM in the presence of gemcitabine (5 uM)) was “down-regulated” and the “XIAP and c-IAP2 protein levels” value [2, 5] was “down-regulated”. For the same molecule, the “apoptosis marker cleaved PARP” value ([2]; curcumin) was “initiate apoptosis as illustrated by the presence of cleaved PARP”, the “XIAP and c-IAP2 protein levels” value ([2]; 72 h, LHRH-curcumin 10 uM and 20 uM in the presence of gemcitabine (5 uM and 10 uM)) was “down-regulated” and the “Sensitivity To LHRH-C” value (PATX173 tissue slices; single agent) was “Resistant”. For the same molecule, the “XIAP and c-IAP2 protein levels” value ([3]; 50 uM in the presence of gemcitabine (5 uM)) was “down-regulated”, the “XIAP and c-IAP2 protein levels” value [3, 6] was “down-regulated” and the “apoptosis marker cleaved PARP” value ([3]; curcumin) was “initiate apoptosis as illustrated by the presence of cleaved PARP”. The “Sensitivity To LHRH-C” value (PATX141 tissue slices; single agent) was “Resistant”.

For `Nc1ccn([C@@H]2O[C@H](CO)[C@@H](O)C2(F)F)c(=O)n1` [gemcitabine, 2′,2′-difluoro 2′deoxycytidine, reference compound], the “size of the spheroids” value (AsPC-1 spheroids) was “decrease the size of the spheroids”, the tissue slice viability (PATX153 tissue slices; Gem 10 μM) was 96.86 and the “size of the spheroids” value (Panc-1 cells spheroids; [4]) was “decrease the size of the spheroids”. The tissue slice viability (PATX50 tissue slices; Gem 10 μM) was 104.96, the tissue slice viability (PATX148 tissue slices; Gem 10 μM) was 99.55 and the tissue slice viability (PATX112 tissue slices; Gem 10 μM) was 91.71. The tissue slice viability (PATX102 tissue slices; Gem 10 μM) was 99.65, the tissue slice viability (PATX176 tissue slices; Gem 10 μM) was 88.23 and the tissue slice viability (PATX110 tissue slices; Gem 10 μM) was 100.20. The tissue slice viability (PATX118 tissue slices; Gem 10 μM) was 97.56, the “XIAP and c-IAP2 protein levels” value [2, 5] was “doesn't affect XIAP and c-IAP2 levels” and the “apoptosis marker cleaved PARP” value ([2]; curcumin) was “no cleaved PARP was detected”. For the same molecule, the tissue slice viability (PATX173 tissue slices; Gem 10 μM) was 89.87, the “XIAP and c-IAP2 protein levels” value [3, 6] was “doesn't affect XIAP and c-IAP2 levels” and the “apoptosis marker cleaved PARP” value ([3]; curcumin) was “Low levels of cleaved PARP was detected”. It also gave a tissue slice viability (PATX141 tissue slices; Gem 10 μM) of 105.35.
